This assay relates to M. tuberculosis H37Rv growth inhibition with meropenem. Kind of assay: M. tuberculosis growth inhibition, H37Rv, set 2, dose response (AID 504703).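 On all read-outs here: growth ran 7 days at 37 °C then overnight with Alamar Blue before reading.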 The settings on record: for pIC50: measured here: IC50 without meropenem.
Where [1] appears, read: M. tuberculosis H37Rv growth inhibition.
Where [2] appears, read: M. tuberculosis H37Rv growth inhibition, measured here: IC90 without meropenem.
Where [3] appears, read: measured here: IC90 with meropenem.

Consider 33 compounds from PubChem BioAssay AID504703 (Southern Research Specialized Biocontainment Screening …, 2011).

pIC50: −log10 of the molar value. Several values for one entry are separate records, joined by “and”; a condition that tells them apart may be missing. Equal values may be shown once. Activity calls are given as the source filed them. How the calls were made is not given here. Bounds are passed on as bounds.

For `CCOc1ccc2c(ccn2-c2ccccc2)c1`, under setting [1], the pIC50 (commonly the negative decadic logarithm of the IC50, by convention in mol/L) was less than 4.60. Further, the IC90 (as a rule, the concentration needed for an effect of 90%) under setting [2] is more than 25 µM.
`CC(=O)c1c(C)n(-c2ccc(C)cc2)c2ccc(O)cc12` showed a pIC50 under setting [1] of less than 4.60. The compound also came in with an IC90 under setting [2] of more than 25 µM.
The corresponding values for `COc1ccc2nc(NC(=O)COc3ccc(C)cc3)sc2c1` are less than 4.60 and more than 25 µM.
The compound `CCOc1ccc2nc(NC(=O)C(C)Oc3ccccc3F)sc2c1` (stereo not given) had a pIC50 under setting [1] of less than 4.60. For the same compound, under setting [2], the concentration for an effect of 90% (IC90) was more than 25 µM.
Consider `CC(Oc1ccccc1)C(=O)Nc1nc2ccc(S(C)(=O)=O)cc2s1` (stereo not given), for which the pIC50 under setting [1] is less than 4.60. The same compound showed an IC90 under setting [2] of more than 25 µM.
Consider `CCOc1ccc2c(c1)c(C(C)=O)c(C)n2-c1cccc(Cl)c1`, for which the IC50 (as a rule, the concentration that gives 50% inhibition) is 10.5 µM (inactive). The compound also showed a pIC50 under setting [1] of less than 4.60. The compound also had an IC90 under setting [2] of more than 25 µM. Besides, the IC90 under setting [3] is more than 25 µM.
Under setting [1], `CCOc1ccc2c(c1)c(C(C)=O)c(C)n2-c1ccccc1` had a pIC50 of less than 4.60. Besides, the IC90 was more than 25 µM under setting [2]; > 18.8 µM and 2.79 µM under setting [3].
On to `CCOc1ccc2nc(NC(=O)COc3ccc(OC)cc3)sc2c1`, for which the pIC50 under setting [1] is less than 4.60. Moreover, the IC90 under setting [2] is more than 25 µM.
As to `CC(=O)c1c(C)n(-c2ccccc2)c2ccccc12`, the IC50 was 11.6 µM (inactive). In addition, the pIC50 under setting [1] is less than 4.60. This compound had an IC90 under setting [2] of more than 25 µM. Under setting [3], this compound returned an IC90 of more than 25 µM.
Consider `COc1ccc2nc(NC(=O)c3oc4ccccc4c3C)sc2c1`, for which the negative logarithm of the IC50 (pIC50) under setting [1] is less than 4.60. Besides, the IC90 under setting [2] is more than 25 µM.
For `N/C(=N\c1nc2ccccc2o1)NC(=O)c1ccc(F)cc1`, the IC50 is 9.64 µM (inactive). This compound also had a pIC50 under setting [1] of 4.67. Besides, the IC90 under setting [2] is more than 25 µM. Under setting [3], the IC90 was more than 25 µM.
Compound `Cc1cc2cc(F)ccc2n1-c1ccccc1` gave a pIC50 under setting [1] of less than 4.60. This compound also yielded an IC90 under setting [2] of more than 25 µM.
The corresponding values for `COc1ccc2nc(NC(=O)COc3ccccc3)sc2c1` are less than 4.60 and more than 25 µM.
Compound `Cc1ccccc1OCC(=O)Nc1ncn[nH]1` had a pIC50 under setting [1] of less than 4.60. Under setting [2], this compound showed an IC90 of more than 25 µM.
Under setting [1], `COc1ccc2c(c1)c(C(C)=O)c(C)n2-c1ccccc1` had a pIC50 of less than 4.60. For the same compound, the IC90 is more than 25 µM under setting [2] and more than 18.8 µM under setting [3].
With `CCCOc1ccc2c(c1)c(C(C)=O)c(C)n2-c1ccccc1`, under setting [1], the pIC50 is less than 4.60. Moreover, under setting [2], the IC90 was more than 25 µM.
The corresponding values for `CC(Oc1ccc(Cl)cc1)C(=O)Nc1nc2ccccc2s1` (stereo not given) are less than 4.60 and more than 25 µM.
As for `CCc1ccc2nc(/N=C(\N)NC(=O)c3ccccc3)nc(C)c2c1`, the IC50 was 0.82 µM (inactive). Under setting [1], this compound had a pIC50 of 5.73. The same compound returned an IC90 under setting [2] of more than 12.5 µM. The same compound gave an IC90 under setting [3] of more than 25 µM.
For `O=C(CCS(=O)(=O)c1ccc(F)cc1)Nc1nnc(-c2cccs2)o1`, the IC50 is > 18.8 µM (inactive) and 22.4 µM (inactive). Also, under setting [1], the pIC50 is less than 4.60. The compound further displayed a 90% effect concentration (IC90) under setting [2] of more than 25 µM. The IC90 under setting [3] is more than 25 µM.
Under setting [1], `O=C(Cc1csc(-c2ccccc2F)n1)Nc1nc2ccccc2[nH]1` gave a pIC50 of less than 4.60. For the same compound, the IC90 under setting [2] is more than 25 µM.
The corresponding values for `CCOc1ccc2nc(NC(=O)COc3ccc(Cl)c(C)c3)sc2c1` are less than 4.60 and more than 25 µM.
The corresponding values for `N/C(=N\c1nc2cc(Cl)ccc2o1)NC(=O)c1ccccc1` are less than 4.60 and more than 25 µM.
The corresponding values for `Cc1ccc(OCC(=O)Nc2ccc(Cl)cc2)c(C)c1` are less than 4.60 and more than 25 µM.
As to `O=C(COc1cccc2ccccc12)Nc1nc2ccccc2s1`, the pIC50 under setting [1] is less than 4.60. Besides, the IC90 under setting [2] is more than 25 µM.
The corresponding values for `COC(=O)c1c(C)[nH]c2ccccc12` are less than 4.60 and more than 25 µM.
In the case of `O=C(Nc1ccccc1)Nc1csc2ccccc12`, the pIC50 under setting [1] is 5.26 and 5.74. Further, the concentration for an effect of 90% (IC90) by setting is: under setting [2], more than 25 µM; under setting [3], more than 25 µM.
In the case of `CCOC(=O)c1cnc2cc(-c3ccc(C(C)(C)C)cc3)nn2c1N`, the IC50 was 1.99 µM (inactive). Under setting [1], the pIC50 was 5.94 and 5.39. Further, the IC90 under setting [2] is more than 25 µM. For the same compound, under setting [3], the IC90 is more than 25 µM.
Compound `CCOc1ccc2nc(NC(=O)COc3ccccc3)sc2c1` showed a pIC50 under setting [1] of less than 4.60. Moreover, the IC90 under setting [2] was more than 25 µM.
In the case of `OCCCc1cn(-c2ccccc2)c2ccccc12`, the IC50 is 14.2 µM (inactive). Under setting [1], this compound gave a pIC50 of less than 4.60. The same compound displayed an IC90 under setting [2] of more than 25 µM. In addition, under setting [3], the IC90 was more than 25 µM.
`COc1ccc2nc(NC(=O)COc3c(C)cc(C)cc3C)sc2c1` had a pIC50 under setting [1] of less than 4.60. Besides, the IC90 under setting [2] is more than 25 µM.
On to `Cc1onc(-c2c(Cl)cccc2Cl)c1/C(N)=N/OC(=O)C1CC1`, for which the pIC50 under setting [1] is 4.83. The IC90 by setting is: under setting [2], more than 25 µM; under setting [3], more than 25 µM.
Under setting [1], `CCOc1ccc2[nH]ccc2c1` had a pIC50 of less than 4.60. Moreover, the IC90 under setting [2] is more than 25 µM.
For `S=C(Nc1ccccc1)Nc1ccc(Cl)cn1`, the pIC50 under setting [1] is < 4.73 and 4.76. Besides, the IC90 is more than 25 µM under setting [2] and more than 25 µM under setting [3].
